Patent publication US5441941A, “1,2-dihydroellipticines with activity against CNS specific cancer” (The United States of America as represented by the …, priority 1993, dated 1995)

Assays:
HOP-62 = test: NCI in vitro screen, SRB percent growth, Non-Small Cell Lung Cancer
CAKI-1 = test: NCI in vitro screen, SRB percent growth, Renal Cancer
COLO 205 = test: NCI in vitro screen, SRB percent growth, Colon Cancer
SF-539 = test: NCI in vitro screen, SRB percent growth, CNS Cancer
RXF-631 = test: NCI in vitro screen, SRB percent growth, Renal Cancer
RPMI-8226 = test: cells; settings: Homo sapiens
CNS cancer cell lines = test: NCI in vitro screen, overall result on CNS cancer cell lines; settings: Tables I and II
HCT-15 = test: NCI in vitro screen, SRB percent growth, Colon Cancer
LOX IMVI = test: NCI in vitro screen, SRB percent growth, Melanoma
M14 = test: NCI in vitro screen, SRB percent growth, Melanoma
U251 = test: NCI in vitro screen, SRB percent growth, CNS Cancer
A549/ATCC = test: NCI in vitro screen, SRB percent growth, Non-Small Cell Lung Cancer
HT29 = test: NCI in vitro screen, SRB percent growth, Colon Cancer
K-562 = test: NCI in vitro screen, SRB percent growth, Leukemia
IGROV1 = test: NCI in vitro screen, SRB percent growth, Ovarian Cancer
TK-10 = test: NCI in vitro screen, SRB percent growth, Renal Cancer
HCT-116 = test: NCI in vitro screen, SRB percent growth, Colon Cancer
[1] = Log10 Concentration -4.0, 100 µM
[2] = Log10 Concentration -7.0, 0.1 µM
[3] = RPMI-8226, read-out: Percent Growth

With Cc1ccc2[nH]c3c(C)c4c(c(C)c3c2c1)CN(C)C=C4 [Formula XI] the “Percent Growth” value (HOP-62; [1]) was -89%, the “Percent Growth” value (HOP-62; Log10 Concentration -5.0) was -39% and the “Percent Growth” value (HOP-62; Log10 Concentration -6.0, 1 µM) was 11%. For the same molecule, the “Percent Growth” value (HOP-62; [2]) was 119%, the “Percent Growth” value (HOP-62; Log10 Concentration -8.0) was 121% and the TGI (HOP-62; PG=0) was 1.64 µM. The GI50 (HOP-62; PG=+50) was 0.433 µM, the CC50 (HOP-62; read-out: LC-50, PG=-50) was 16.3 µM and the “Percent Growth” value (CAKI-1; [1]) was -89%. For the same molecule, the “Percent Growth” value (CAKI-1; Log10 Concentration -6.0, 1 µM) was 56%, the “Percent Growth” value (CAKI-1; [2]) was 106% and the “Percent Growth” value (CAKI-1; Log10 Concentration -8.0) was 116%. The TGI (CAKI-1; PG=0) was 5.89 µM, the GI50 (CAKI-1; PG=+50) was 1.21 µM and the CC50 (CAKI-1; read-out: LC-50, PG=-50) was 28.8 µM. The “Percent Growth” value (COLO 205; [1]) was -28%, the “Percent Growth” value (COLO 205; Log10 Concentration -5.0) was -23% and the “Percent Growth” value (COLO 205; Log10 Concentration -6.0, 1 µM) was 24%. The “Percent Growth” value (COLO 205; [2]) was 92%, the “Percent Growth” value (COLO 205; Log10 Concentration -8.0) was 119% and the TGI (COLO 205; PG=0) was 3.2 µM. The GI50 (COLO 205; PG=+50) was 0.416 µM, the CC50 (COLO 205; read-out: LC-50, PG=-50) was > 100 µM and the “Percent Growth” value (SF-539; [1]) was -90%. For the same molecule, the “Percent Growth” value (SF-539; Log10 Concentration -5.0) was -58%, the “Percent Growth” value (SF-539; Log10 Concentration -6.0, 1 µM) was 6% and the “Percent Growth” value (SF-539; [2]) was 92%. For the same molecule, the “Percent Growth” value (SF-539; Log10 Concentration -8.0) was 99%, the TGI (SF-539; PG=0) was 1.23 µM and the GI50 (SF-539; PG=+50) was 0.305 µM. The CC50 (SF-539; read-out: LC-50, PG=-50) was 7.56 µM, the “Percent Growth” value (RXF-631; [1]) was -78% and the “Percent Growth” value (RXF-631; Log10 Concentration -5.0) was -8%. For the same molecule, the “Percent Growth” value (RXF-631; Log10 Concentration -6.0, 1 µM) was 30%, the “Percent Growth” value (RXF-631; [2]) was 74% and the “Percent Growth” value (RXF-631; Log10 Concentration -8.0) was 95%. It also gave a TGI (RXF-631; PG=0) of 6.25 µM, a GI50 (RXF-631; PG=+50) of 0.352 µM and a CC50 (RXF-631; read-out: LC-50, PG=-50) of 39.5 µM. The GI50 (RPMI-8226; RPMI-8226) was 6.81 µM, the CC50 (RPMI-8226; RPMI-8226, read-out: LC-50) was > 100 µM and the activity at 0.01 µM (RPMI-8226; [3]) was 109%. For the same molecule, the activity at 0.1 µM (RPMI-8226; [3]) was 106%, the activity at 1 µM (RPMI-8226; [3]) was 103% and the activity at 10 µM (RPMI-8226; [3]) was 39%. For the same molecule, the activity at 100 µM (RPMI-8226; [3]) was -27%, the IC (TGI) (RPMI-8226; RPMI-8226, read-out: TGI) was 39.3 µM and the “effect against CNS cancer cell lines” value (CNS cancer cell lines) was “particularly effective against CNS cancer cell lines”. The “Percent Growth” value (HCT-15; [1]) was -87%, the “Percent Growth” value (HCT-15; Log10 Concentration -5.0) was 76% and the “Percent Growth” value (HCT-15; Log10 Concentration -6.0, 1 µM) was 95%. For the same molecule, the “Percent Growth” value (HCT-15; [2]) was 102%, the “Percent Growth” value (HCT-15; Log10 Concentration -8.0) was 111% and the TGI (HCT-15; PG=0) was 29.3 µM. The GI50 (HCT-15; PG=+50) was 14.5 µM, the CC50 (HCT-15; read-out: LC-50, PG=-50) was 59.6 µM and the “Percent Growth” value (LOX IMVI; [1]) was -81%. The “Percent Growth” value (LOX IMVI; Log10 Concentration -5.0) was 26%, the “Percent Growth” value (LOX IMVI; Log10 Concentration -6.0, 1 µM) was 82% and the “Percent Growth” value (LOX IMVI; [2]) was 94%. The “Percent Growth” value (LOX IMVI; Log10 Concentration -8.0) was 98%, the TGI (LOX IMVI; PG=0) was 17.4 µM and the GI50 (LOX IMVI; PG=+50) was 3.67 µM. The CC50 (LOX IMVI; read-out: LC-50, PG=-50) was 51.4 µM, the “Percent Growth” value (M14; [1]) was -93% and the “Percent Growth” value (M14; Log10 Concentration -5.0) was 6%. For the same molecule, the “Percent Growth” value (M14; Log10 Concentration -6.0, 1 µM) was 103%, the “Percent Growth” value (M14; [2]) was 94% and the “Percent Growth” value (M14; Log10 Concentration -8.0) was 106%. It also gave a TGI (M14; PG=0) of 11.4 µM, a GI50 (M14; PG=+50) of 3.52 µM and a CC50 (M14; read-out: LC-50, PG=-50) of 36.8 µM. The “Percent Growth” value (U251; Log10 Concentration -5.0) was -72%, the “Percent Growth” value (U251; Log10 Concentration -6.0, 1 µM) was 3% and the “Percent Growth” value (U251; [2]) was 89%. The “Percent Growth” value (U251; Log10 Concentration -8.0) was 99%, the TGI (U251; PG=0) was 1.1 µM and the GI50 (U251; PG=+50) was 0.286 µM. For the same molecule, the CC50 (U251; read-out: LC-50, PG=-50) was 5.12 µM, the “Percent Growth” value (A549/ATCC; [1]) was -66% and the “Percent Growth” value (A549/ATCC; Log10 Concentration -5.0) was -15%. For the same molecule, the “Percent Growth” value (A549/ATCC; Log10 Concentration -6.0, 1 µM) was 33%, the “Percent Growth” value (A549/ATCC; [2]) was 86% and the “Percent Growth” value (A549/ATCC; Log10 Concentration -8.0) was 96%. For the same molecule, the TGI (A549/ATCC; PG=0) was 4.9 µM, the GI50 (A549/ATCC; PG=+50) was 0.469 µM and the CC50 (A549/ATCC; read-out: LC-50, PG=-50) was 48.5 µM. For the same molecule, the “Percent Growth” value (HT29; [1]) was -93%, the “Percent Growth” value (HT29; Log10 Concentration -5.0) was 4% and the “Percent Growth” value (HT29; Log10 Concentration -6.0, 1 µM) was 82%. The “Percent Growth” value (HT29; [2]) was 95%, the “Percent Growth” value (HT29; Log10 Concentration -8.0) was 99% and the TGI (HT29; PG=0) was 11.1 µM. The GI50 (HT29; PG=+50) was 2.57 µM, the CC50 (HT29; read-out: LC-50, PG=-50) was 36 µM and the “Percent Growth” value (K-562; [1]) was 2%. The “Percent Growth” value (K-562; Log10 Concentration -5.0) was 6%, the “Percent Growth” value (K-562; Log10 Concentration -6.0, 1 µM) was 53% and the “Percent Growth” value (K-562; [2]) was 83%. For the same molecule, the “Percent Growth” value (K-562; Log10 Concentration -8.0) was 95%, the TGI (K-562; PG=0) was > 100 µM and the GI50 (K-562; PG=+50) was 1.17 µM. For the same molecule, the CC50 (K-562; read-out: LC-50, PG=-50) was > 100 µM, the “Percent Growth” value (IGROV1; [1]) was -73% and the “Percent Growth” value (IGROV1; Log10 Concentration -5.0) was -15%. The “Percent Growth” value (IGROV1; Log10 Concentration -6.0, 1 µM) was 30%, the “Percent Growth” value (IGROV1; [2]) was 85% and the “Percent Growth” value (IGROV1; Log10 Concentration -8.0) was 97%. It also gave a TGI (IGROV1; PG=0) of 4.71 µM, a GI50 (IGROV1; PG=+50) of 0.438 µM and a CC50 (IGROV1; read-out: LC-50, PG=-50) of 39.9 µM. The “Percent Growth” value (TK-10; [1]) was -93%, the “Percent Growth” value (TK-10; Log10 Concentration -5.0) was 49% and the “Percent Growth” value (TK-10; Log10 Concentration -6.0, 1 µM) was 90%. The “Percent Growth” value (TK-10; [2]) was 101%, the “Percent Growth” value (TK-10; Log10 Concentration -8.0) was 103% and the TGI (TK-10; PG=0) was 22.1 µM. The GI50 (TK-10; PG=+50) was 9.46 µM, the CC50 (TK-10; read-out: LC-50, PG=-50) was 49.6 µM and the “Percent Growth” value (HCT-116; [1]) was -81%. The “Percent Growth” value (HCT-116; Log10 Concentration -5.0) was 3%, the “Percent Growth” value (HCT-116; Log10 Concentration -6.0, 1 µM) was 83% and the “Percent Growth” value (HCT-116; [2]) was 103%. The “Percent Growth” value (HCT-116; Log10 Concentration -8.0) was 113%, the TGI (HCT-116; PG=0) was 10.9 µM and the GI50 (HCT-116; PG=+50) was 2.58 µM. It also gave a CC50 (HCT-116; read-out: LC-50, PG=-50) of 42.8 µM.
